{"source": "paper PMC5242521", "about": "(PLoS ONE, 2017)", "target": "T1, OCT1 (Homo sapiens, UniProt O15245)", "T1 sequence (O15245 1-554)": "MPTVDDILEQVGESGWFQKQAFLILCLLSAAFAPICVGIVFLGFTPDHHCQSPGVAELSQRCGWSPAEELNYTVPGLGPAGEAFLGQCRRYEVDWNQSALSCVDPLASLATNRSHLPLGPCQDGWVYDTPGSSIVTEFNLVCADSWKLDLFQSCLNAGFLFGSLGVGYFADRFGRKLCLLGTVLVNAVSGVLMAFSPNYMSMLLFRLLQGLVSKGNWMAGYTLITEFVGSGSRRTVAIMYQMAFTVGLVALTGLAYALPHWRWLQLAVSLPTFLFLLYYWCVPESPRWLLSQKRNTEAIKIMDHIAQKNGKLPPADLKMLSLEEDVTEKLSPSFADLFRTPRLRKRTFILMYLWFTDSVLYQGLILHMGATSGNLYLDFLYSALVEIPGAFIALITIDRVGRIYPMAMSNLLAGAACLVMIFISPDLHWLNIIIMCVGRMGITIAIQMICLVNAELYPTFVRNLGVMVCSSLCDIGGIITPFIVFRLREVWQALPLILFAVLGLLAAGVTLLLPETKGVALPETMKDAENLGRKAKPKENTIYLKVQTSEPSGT", "experiment": "Cis-inhibition of OCT1-mediated TEA accumulation in HEK-OCT1 cells", "format": "cell-based", "conditions": "pyrethroid 100 μM; 29 μM [14C]-TEA, 5 min", "experimental": "Intracellular accumulation of TEA was then determined by scintillation counting. […] After washing, cells were next re-incubated with 29 μM [1-^14C]-TEA for 5 min at 37°C. Intracellular accumulation of [1-^14C]-TEA was then determined by scintillation counting.", "data": [{"smiles": "C=CCC1=C(C)C(OC(=O)C2C(C=C(C)C)C2(C)C)CC1=O", "note": "(stereo not shown) [allethrin]", "values": [{"measurement": "cis-effect on TEA accumulation in HEK-OCT1 cells", "result": "markedly cis-inhibit"}]}]}
